# Marks after values point to notes of the source that are not given here.
# Assays:
# Type in all cases: in vivo
# [1] = tested on: cerebral hemorrhage model in wild-type AB strain zebrafish; test: Movement velocity in simvastatin-induced cerebral hemorrhage model in zebrafish; conditions: icariin 30 μM (Table 3 prints 25 μg/mL); for Movement velocity (mean ± SE): n = 10, model control 80, normal control 198 mm/s
# Description: 5 dpf wild-type AB strain zebrafish was administered with an aqueous simvastatin solution (0.5 μM) for 18 hours to establish a cerebral hemorrhage model in zebrafish. 180 wild-type AB strain zebrafishes at 5 days post fertilization (5 dpf) were randomly selected and put in a six-well plate, 30 per well (experiment group). Aqueous MS-SOD solutions with concentrations of 222, 667 and 2000 μg/mL were administrated respectively, the concentration of positive control drug icariin was 30 μM, and the normal control group and the model control group were set at the same time. The volume of each well was 3 mL. After treatment of zebrafishes with samples for 4 hours, except for the normal control group, the other experiment groups were treated with simvastatin for 18 hours to establish the cerebral hemorrhage model. After the treatment, 10 zebrafishes from each group were randomly selected to measure the movement velocity (V) of zebrafish using a behavioral analyzer. The statistical significance of the movement velocity was used to evaluate the behavioral improvement effect of MS-SOD on cerebral hemorrhage. The formula of the behavioral improvement effect of MS-SOD on cerebral hemorrhage was as follows: [formula] Statistical analysis was performed using variance analysis and Dunnett's T-test, and p<0.05 indicated a significant difference.
# [2] = tested on: cerebral hemorrhage model in wild-type AB strain zebrafish; test: Blood flow volume in simvastatin-induced cerebral hemorrhage model in zebrafish; conditions: icariin 30 μM; for Blood flow volume (mean ± SE): n = 10, model control 0.13, normal control 0.30 nL/s
# Description: 3 dpf wild-type AB strain zebrafish was administered with an aqueous simvastatin solution (0.5 μM) for 18 hours to establish a cerebral hemorrhage model in zebrafish. 180 wild-type AB strain zebrafishes at 3 days post fertilization (3 dpf) were randomly selected and put in a six-well plate, 30 per well (experiment group). Aqueous MS-SOD solutions with concentrations of 222, 667 and 2000 μg/mL were administrated respectively, the concentration of positive control drug icariin was 30 μM, and the normal control group (the zebrafishes were treated with water for fish) and the model control group were set at the same time. The volume of each well was 3 mL. After treatment of zebrafishes with samples for 4 hours, except for the normal control group, the other experiment groups were treated with simvastatin for 18 hours to establish the cerebral hemorrhage model. After the treatment, 10 zebrafishes from each group were randomly selected and placed in a heart rate and blood flow analysis system to record blood flow video of zebrafish, and analyze the blood flow volume (O) of zebrafish. The statistical significance of the blood flow volume was used to evaluate the improvement effect of MS-SOD on blood flow volume of cerebral hemorrhage. The formula of the improvement effect of MS-SOD on blood flow volume of cerebral hemorrhage was as follows: [formula] Statistical analysis was performed using variance analysis and Dunnett's T-test, and p<0.05 indicated a significant difference. 4.
# [3] = tested on: cerebral hemorrhage model in wild-type AB strain zebrafish; test: Simvastatin-induced cerebral hemorrhage model in zebrafish (incidence); conditions: icariin 30 μM; for Incidence of cerebral hemorrhage: model control 83%
# Description: 1 dpf wild-type AB strain zebrafish was administered with an aqueous simvastatin solution (0.5 μM) for 18 hours to establish a cerebral hemorrhage model in zebrafish. 180 wild-type AB strain zebrafishes at 1 day post fertilization (1 dpf) were randomly selected and put in a six-well plate, 30 per well (experiment group). Simvastatin was used to induce a cerebral hemorrhage model in zebrafish. Aqueous MS-SOD solutions with concentrations of 222, 667 and 2000 μg/mL were administrated respectively, the concentration of positive control drug icariin was 30 μM, and the normal control group and the model control group were set at the same time. The volume of each well was 3 mL. After 18 hours of co-treatment with MS-SOD and simvastatin, 30 zebrafishes from each group were selected and observed under a microscope, photos were taken and saved. The number of zebrafish with cerebral hemorrhage was counted, and the incidence of cerebral hemorrhage in zebrafish of each experiment group was calculated.
# [4] = tested on: cerebral ischemia model in Albino strain zebrafish; test: Ponatinib-induced cerebral ischemia model in zebrafish; conditions: aspirin 50 μg/mL; for Incidence of cerebral ischemia: model control 100%
# Description: Melanin allele mutated Albino strain zebrafish at 2 days post fertilization (2 dpf) was administered with an aqueous ponatinib solution (1 μg/mL) for 18 hours to establish a cerebral ischemia model in zebrafish. 180 melanin allele mutated Albino strain zebrafishes at 2 days post fertilization (2 dpf) were randomly selected. 30 zebrafishes were treated in each well (experiment group), and aqueous MS-SOD solutions with concentrations of 222, 667 and 2000 μg/mL were administrated respectively, the concentration of positive control drug aspirin was 50 μg/m L, and the normal control group and the model control group were set at the same time. The volume of each well was 3 mL. After MS-SOD treatment for a period of time, except for the normal control group, all the other experiment groups were simultaneously administrated with aqueous ponatinib solution to induce the cerebral ischemia model in zebrafish. After 18 hours of co-treatment with MS-SOD and ponatinib, 20 fish were randomly selected from each well and stained with o-Dianisidine. After staining, photos were taken and data were collected to count the number of zebrafish with cerebral ischemia and calculate the incidence of cerebral ischemia in zebrafish of each experiment group.
Compound,Movement improvement effect [1],Movement velocity (mean ± SE) [1] [mm/s],Movement velocity (mean ± SE) ([1]; listed as icariin) [mm/s],Movement improvement effect ([1]; listed as icariin) [%],Blood flow volume improvement effect [2] [%],Blood flow volume (mean ± SE) [2] [nL/s],Blood flow volume (mean ± SE) ([2]; listed as icariin) [nL/s],Improvement effect on cerebral hemorrhage [3],Number of zebrafish with cerebral hemorrhage ([3]; n = 30),Incidence of cerebral hemorrhage ([3]; n = 30),"Incidence of cerebral hemorrhage ([3]; n = 30, listed as icariin) [%]",Improvement effect on cerebral hemorrhage ([3]; listed as icariin) [%],Improvement effect on cerebral ischemia [4],Number of zebrafish with cerebral ischemia ([4]; n = 20),Incidence of cerebral ischemia ([4]; n = 20),"Incidence of cerebral ischemia ([4]; n = 20, listed as aspirin) [%]",Improvement effect on cerebral ischemia ([4]; listed as aspirin) [%]
"COc1ccc(-c2oc3c(CC=C(C)C)c(O[C@@H]4O[C@H](CO)[C@@H](O)[C@H](O)[C@H]4O)cc(O)c3c(=O)c2O[C@@H]2O[C@@H](C)[C@H](O)[C@@H](O)[C@H]2O)cc1 [Icariin, icariin, reference compound]",22* %,106 ± 7,106,22,29,0.18 ± 0.025,0.18,32* %,17,56* %,57,32,–,–,–,–,–
"CC(=O)Oc1ccccc1C(=O)O [Aspirin, aspirin, reference compound]",–,–,–,–,–,–,–,–,–,–,–,–,65*** %,7,35*** %,35,65

# From patent US20220168400A1, “USE OF A MANGANESE SUPEROXIDE DISMUTASE WITH HIGH STABILITY IN THE PREVENTION OR TREATMENT OF CEREBRAL STROKE” (CARRY HEALTH BIOPHARMACEUTICALS (HANGZHOU) CO., LTD., priority 2019, published 2022)
